Experimental data reported in US11247965B2 (VenatoRx Pharmaceuticals, Inc., priority 2017, dated 2022).
Like-named read-outs stand apart in the source and are kept apart here.

Columns and labels:
[1] = tested on: HBV; settings: Phase 1b clinical trial, 600 mg bid dosing for 29 days; cited from earlier work
[2] = tested on: HBV replication in HepAD38 cells; assay: Anti-HBV activity in HepAD38 cells, extracellular HBV DNA by QPCR; assay type: cell-based, HBV (genotype D, serotype ayw)
Outline: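 Seven-day compound exposure (30 μM down to 10 nM, half-log steps) after tetracycline withdrawal induced HBV replication in HepAD38 cells. Extracellular viral DNA measured by QPCR (copies/mL via standard curve), normalised to DMSO wells; EC50 from 4-parameter non-linear regression.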

[3] = tested on: HepG2 cells; assay: In vitro cytotoxicity, MTT cell viability assay in HepG2 cells; assay type: cell-based; settings: human, 7 days
Outline: (§1)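 Parental HepG2 cells in EMEM + 10% FBS were exposed to compounds (8 half-log dilutions, 30 μM to 1.0 nM) for 7 days at 37 °C, 5% CO2. MTT was then added for 3-4 h, formazan dissolved in DMSO and absorbance read at 492 nm; CC50 came from 4-parameter fits against vehicle controls.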

[4] = as above; assay type: cell-based; settings: human, Cytotoxicity CC50
Outline: as §1

[5] = Hepatitis B virus, HePAD38, 168 h, read-out: Anti-HBV EC50, HepAD38 cells, extracellular HBV DNA by QPCR, 7 days of incubation
[6] = read-out: Anti-HBV EC50, HepAD38 cells, extracellular HBV DNA by QPCR, 7 days of incubation

Row | Structure (SMILES) | reduction in HBV DNA [1] | EC50 [2, 5] | CC50 [3] | EC50 [2, 6] | CC50 at 7 days [4]
1 | O=C(Nc1cc(F)c(F)c(F)c1)c1ccc(F)c(S(=O)(=O)N2CCC(O)CC2)c1 [NVR 3-778] | −1.7 log 10 |  |  |  | 
2 | Cc1cc(NC(=O)c2ccc(F)c(C(F)(F)C(=O)N3C4CCC3CC(O)(CO)C4)c2)ccc1F (single isomer, unassigned; isomer 1) [Example 274] |  | < 5 µM | < 5 µM |  | 
3 | N#Cc1cc(NC(=O)c2ccc(F)c(C(F)(F)C(=O)N3[C@@H]4CC[C@H]3C[C@@H](O)C4)c2)ccc1F [Example 192, N-(3-cyano-4-fluorophenyl)-3-(1,1-difluoro-2-((1R,3r,5S)-3-hydroxy-8-azabicyclo[3.2.1]octan-8-yl)-2-oxoethyl)-4-fluorobenzamide] |  |  | 5 to 30 µM | < 5 µM | 
4 | N#Cc1cc(NC(=O)c2ccc(F)c(C(F)(F)C(=O)N3CCC(O)C(F)(F)C3)c2)ccc1F (stereo not shown) [Example 191, N-(3-cyano-4-fluorophenyl)-3-(2-(3,3-difluoro-4-hydroxypiperidin-1-yl)-1,1-difluoro-2-oxoethyl)-4-fluorobenzamide] |  |  | 5 to 30 µM | < 5 µM | 
5 | Cc1cc(NC(=O)c2ccc(F)c(C(F)(F)C(=O)N3C4CCC3CC(O)(CO)C4)c2)ccc1F (single isomer, unassigned; isomer 2) [Example 275] |  |  | > 30 µM | < 5 µM | 
6 | Cc1cc(NC(=O)c2c(C)c(C(O)(C(=O)NC(C)(C)C)C(F)(F)F)c(C)n2C)ccc1F (stereo not shown) [Example 155, 4-(3-(tert-butylamino)-1,1,1-trifluoro-2-hydroxy-3-oxopropan-2-yl)-N-(4-fluoro-3-methylphenyl)-1,3,5-trimethyl-1H-pyrrole-2-carboxamide] |  |  | 5 to 30 µM | < 5 µM | 
7 | N#Cc1cc(NC(=O)c2ccc(F)c(C(F)(F)C(=O)N3[C@@H]4CC[C@H]3C[C@@H](O)C4)c2)ccc1F [Example 178, N-(3-cyano-4-fluorophenyl)-3-(1,1-difluoro-2-((1R,3r,5S)-3-hydroxy-8-azabicyclo[3.2.1]octan-8-yl)-2-oxoethyl)-4-fluorobenzamide] |  | < 5 µM | > 30 µM |  | 
8 | O=C(Nc1ccc(F)c(F)c1)c1ccc(F)c(C(F)(F)C(=O)NC2CCC(O)CC2)c1 (stereo not shown) [Example 27, 3-(1,1-difluoro-2-(((1s,4s)-4-hydroxycyclohexyl)amino)-2-oxoethyl)-N-(3,4-difluorophenyl)-4-fluorobenzamide] |  |  | 5 to 30 µM | < 5 µM | 
9 | CCC(C)NC(=O)C(F)(F)c1cc(C(=O)Nc2ccc(F)c(Cl)c2)cn1C (stereo not shown) [Example 136, 5-(2-(sec-butylamino)-1,1-difluoro-2-oxoethyl)-N-(3-chloro-4-fluorophenyl)-1-methyl-1H-pyrrole-3-carboxamide] |  | 5 to 30 µM |  |  | > 30 µM
10 | Cc1cc(NC(=O)c2ccc(C(F)(F)C(=O)NC(C)(C)CO)s2)ccc1F [Example 82, 5-(1,1-difluoro-2-((1-hydroxy-2-methylpropan-2-yl)amino)-2-oxoethyl)-N-(4-fluoro-3-methylphenyl)thiophene-2-carboxamide] |  | > 30 µM |  |  | > 30 µM
11 | Cc1cc(NC(=O)c2ccc(F)c(C(F)(F)C(=O)NC34CCC(O)(CC3)C4)c2)ccc1F [Example 254, 3-(1,1-difluoro-2-((4-hydroxybicyclo[2.2.1]heptan-1-yl)amino)-2-oxoethyl)-4-fluoro-N-(4-fluoro-3-methylphenyl)benzamide] |  | 5 to 30 µM |  |  | > 30 µM
12 | Cc1cc(NC(=O)c2ccc(F)c(C(F)(F)C(=O)N3CCC(C)(O)CC3)c2)ccc1F [Example 70, 3-(1,1-difluoro-2-(4-hydroxy-4-methylpiperidin-1-yl)-2-oxoethyl)-4-fluoro-N-(4-fluoro-3-methylphenyl)benzamide] |  | < 5 µM |  |  | 5 to 30 µM
13 | Cn1ccc(C(=O)Nc2ccc(F)c(Cl)c2)c1C(F)(F)C(=O)NOC(C)(C)C [Example 145, 2-(2-(tert-butoxyamino)-1,1-difluoro-2-oxoethyl)-N-(3-chloro-4-fluorophenyl)-1-methyl-1H-pyrrole-3-carboxamide] |  | 5 to 30 µM |  |  | > 30 µM
14 | Cc1cc(NC(=O)c2cc(C(F)(F)C(=O)NC(C)(C)C)cs2)ccc1F [Example 157, 4-(2-(tert-butylamino)-1,1-difluoro-2-oxoethyl)-N-(4-fluoro-3-methylphenyl)thiophene-2-carboxamide] |  | 5 to 30 µM |  |  | 5 to 30 µM
15 | O=C(Nc1ccc(F)c(F)c1)c1ccc(F)c(C(F)(F)C(=O)NC2CCC(O)CC2)c1 (stereo not shown) [Example 26, 3-(1,1-difluoro-2-(((1r,4r)-4-hydroxycyclohexyl)amino)-2-oxoethyl)-N-(3,4-difluorophenyl)-4-fluorobenzamide] |  | < 5 µM |  |  | 5 to 30 µM
16 | Cc1cc(NC(=O)c2ccc(F)c(C(F)(F)C(=O)N3CCC(O)C(CO)C3)c2)ccc1F (stereo not shown) [Example 69, 3-(1,1-difluoro-2-(4-hydroxy-3-(hydroxymethyl)piperidin-1-yl)-2-oxoethyl)-4-fluoro-N-(4-fluoro-3-methylphenyl)benzamide] |  | < 5 µM |  |  | > 30 µM
17 | Cc1cc(NC(=O)c2ccc(F)c(C(F)(F)C(=O)N3Cc4sc(N)nc4C(C)(C)C3)c2)ccc1F [Example 339, 3-(2-(2-amino-7,7-dimethyl-6,7-dihydrothiazolo[5,4-c]pyridin-5(4H)-yl)-1,1-difluoro-2-oxoethyl)-4-fluoro-N-(4-fluoro-3-methylphenyl)benzamide] |  | < 5 µM |  |  | 5 to 30 µM
18 | Cc1cc(NC(=O)c2ccnc(C(F)(F)C(=O)N3[C@@H]4CC[C@H]3C[C@H](C(=O)O)C4)c2)ccc1F [Example 282, (1R,3s,5S)-8-(2,2-difluoro-2-(4-((4-fluoro-3-methylphenyl)carbamoyl)pyridin-2-yl)acetyl)-8-azabicyclo[3.2.1]octane-3-carboxylic acid] |  | 5 to 30 µM |  |  | > 30 µM
19 | Cc1cc(NC(=O)c2ccc(F)c(C(F)(F)C(=O)N3CCc4nc(N)sc4CC3)c2)ccc1F [Example 340, 3-(2-(2-amino-4,5,7,8-tetrahydro-6H-thiazolo[4,5-d]azepin-6-yl)-1,1-difluoro-2-oxoethyl)-4-fluoro-N-(4-fluoro-3-methylphenyl)benzamide] |  | < 5 µM |  |  | 5 to 30 µM
20 | O=C(Nc1cc(F)c(F)c(F)c1)c1ccc(F)c(C(F)(F)C(=O)N2CCC(O)CC2)c1 [Example 86, 3-(1,1-difluoro-2-(4-hydroxypiperidin-1-yl)-2-oxoethyl)-4-fluoro-N-(3,4,5-trifluorophenyl)benzamide] |  | < 5 µM |  |  | 5 to 30 µM
21 | O=C(Nc1ccnc(Cl)c1)c1ccc(F)c(C(F)(F)C(=O)N2CCC(O)CC2)c1 [Example 167, N-(2-chloropyridin-4-yl)-3-(1,1-difluoro-2-(4-hydroxypiperidin-1-yl)-2-oxoethyl)-4-fluorobenzamide] |  | 5 to 30 µM |  |  | 5 to 30 µM
22 | Cc1cc(NC(=O)c2ccc(F)c(C(F)(F)C(=O)N[C@H]3CC[C@H](O)CC3)c2)ccc1F [Example 79, 3-(1,1-difluoro-2-(((1r,4r)-4-hydroxycyclohexyl)amino)-2-oxoethyl)-4-fluoro-N-(4-fluoro-3-methylphenyl)benzamide] |  | 5 to 30 µM |  |  | > 30 µM
23 | O=C(Nc1ccc(F)c(F)c1)c1ccc(F)c(C(F)(F)C(=O)N2CCCCC(O)C2)c1 (stereo not shown) [Example 25, 3-(1,1-difluoro-2-(3-hydroxyazepan-1-yl)-2-oxoethyl)-N-(3,4-difluorophenyl)-4-fluorobenzamide] |  | < 5 µM |  |  | 5 to 30 µM
24 | Cc1cc(NC(=O)c2ccc(F)c(C(F)(F)C(=O)N3CCC[C@H]3B(O)O)c2)ccc1F [Example 153, (R)-(1-(2,2-difluoro-2-(2-fluoro-5-((4-fluoro-3-methylphenyl)carbamoyl)phenyl)acetyl)pyrrolidin-2-yl)boronic acid] |  | < 5 µM |  |  | > 30 µM
25 | O=C(Nc1ccc(F)c(F)c1)c1ccc(F)c(C(F)(F)C(=O)NC2CCOCC2)c1 [Example 5, 3-(1,1-difluoro-2-oxo-2-((tetrahydro-2H-pyran-4-yl)amino)ethyl)-N-(3,4-difluorophenyl)-4-fluorobenzamide] |  | 5 to 30 µM |  |  | 5 to 30 µM
